{"source": "patent US6989364B1", "about": "“Methods for treating cardiac hypertrophy by administering IFN-γ” (Genentech, Inc., priority 1998, dated 2006)", "molecules": {"B1": {"name": "IL-1α: other cytokine tested for inhibition of the spreading response (protein, UniProt P01583 113-271, looked up)", "Interleukin-1 alpha": "SAPFSFLSNVKYNFMRIIKYEFILNDALNQSIIRANDQYLTAAALHNLDEAVKFDMGAYKSSKDDAKITVILRISKTQLYVTAQDEDQPVLLKEMPEIPKTITGSETNLLFFWETHGTKNYFTSVAHPNLFIATKQDYWVCLAGGPPSITDFQILENQA"}}, "key": {"[1]": {"test_system": "male Sprague/Dawley (SD) rats", "test": "Cardiac hypertrophy induced by fluprostenol in vivo: body and organ weights", "set-up": "species or system rat", "excerpt": "This pharmacological model tests the ability of IFN-γ to inhibit cardiac hypertrophy induced in rats (e.g. male Wistar or Sprague-Dawley) by subcutaneous injection of fluprostenol (an agonist analog of PGF2α). It is known that rats with pathologic cardiac hypertrophy induced by myocardial infarction have chronically elevated levels of extractable PGF2α in their myocardium. Lai et al, Am. J. Physiol. (Heart Circ. Physiol.) 271:H2197–H2208 (1996). Accordingly, factors that can inhibit the effects of fluprostenol on myocardial growth in vivo are potentially useful for treating cardiac hypertrophy. The effects of IFN-γ on cardiac hypertrophy are determined by measuring the weight of heart, ventricles, and left ventricle (normalized by body weight) relative to fluprostenol-treated rats not receiving IFN-γ. A detailed description of this assay is provided in the examples.\nAnimals All experimental procedures conformed to the guiding principles of the American Physiology Society, and were approved by Genentech's Institutional Animal Care and Use Committee. The animals used in this study were male Sprague/Dawley (SD) rats (8 weeks of age, Charles River Breeding Laboratories, Inc.). The animals were acclimated to the facility for at least one week before experiments, fed a pelleted rat chow and water ad libitum, and housed in a light and temperature controlled room.\nAdministration of fluprostenol and/or IFN-γ Rats received subcutaneous injection of fluprostenol (Cayman Chemical, Ann Arbor, Mich.) at 0.15 mg/kg, recombinant mouse IFN-γ (Genentech, Inc., South San Francisco, Calif.) at 0.08 mg/kg, combination of fluprostenol and IFN-γ, or saline vehicle, twice a day for 14 days. In the IFN-γ and fluprostenol+IFN-γ groups, animals were pretreated with IFN-γ for one day. Body weight was measured before and after treatment. A previous study has shown that the dose of fluprostenol used here is the lowest dose which produces a significant cardiac hypertrophy in rats. Lai et al., supra.\nMeasurement of organ weights Under anesthesia with ketamine/xylazine, the heart, kidney, and spleen were removed, dissected and weighed. The left ventricle was stored at […] for evaluation of gene expression.\nStatistical analyisis Results are expressed as mean±SEM. One way analysis of variance (ANOVA) was performed to assess differences in parameters between groups. Significant differences were then subjected to post hoc analysis using Newman-Keuls method; P<0.05 was considered significant."}, "[2]": {"test_system": "male Sprague/Dawley (SD) rats", "test": "Hemodynamic assessment (MAP) in rats treated with fluprostenol and/or IFN-γ", "type": "in vivo, rat", "conditions": "conscious rats, 14 days of treatment (FIG. 5)", "method": "Hemodynamic assessment Thirteen days after treatment, rats were anesthetized with intraperitoreal injection of ketamine 80 mg/kg (Aveco Co., Inc., Fort Dodge, Iowa) and xylazine 10 mg/kg (Rugby Laboratories, Inc., Rockville Center, N.Y.). A catheter (PE-10 fused with PE 50) filled with heparin-saline solution (50 U/ml) was implanted into the abdominal aorta, via the right femoral artery, for measurement of mean arterial pressure (MAP) and heart rate (HR). The catheter was exteriorized and fixed at the back of the neck.\nOne day after catheterization, the arterial catheter was connected to a Model CP 10 pressure transducer (Century Technology Company, Inglewood, Calif., USA) that was coupled to a Grass Model 7 polygraph (Grass Instruments, Quincy, Mass., USA). MAP and HR were measured simultaneously in conscious, unrestrained rats."}, "[3]": {"test_system": "left ventricle of male Sprague/Dawley (SD) rats", "test": "Cardiac gene expression (real-time RT-PCR) in rats treated with fluprostenol and/or IFN-γ", "type": "in vivo, rat", "conditions": "normalized to GAPDH, FIG. 6", "excerpt": "FIGS. 6A–6D Bargraphs showing the effect of fluprostenol (FLUP) and IFN-γ on: A Skeletal actin (SKA); B Sarcoplasmic reticulum calcium ATPase (SRCA); C Collagen I (COL I); D Atrial natriuretic factor (ANF) expression. Expression levels are normalized to glyceraldehyde-3-phosphate dehydrogenase (GAPDH) message. VEH is vehicle. There were 7 animals per group and the data are presented as the mean±SEM. P<0.05 vs VEH group.\nRNA preparation Total RNA was isolated using RNeasy Maxi Columns (Qïägen) according to the manufacturer's instructions.\nRT-PCR Real-time RT-PCR (TaqMan) technology was used to compare the gene expression between the various treatment groups. An oligonucleotide probe containing a fluorescent reporter dye, […], at the 3′-end was designed to hybridize to the amplicon defined by two PCR primers. A 3′-blocking phosphate prevents extension of the probe. The reporter dye is released from the probe by the 5′ exonuclease activity of Taq polymerase during the extension phase of PCR reaction. […] The threshold cycle number (Ct), defined as the point where the reporter fluorescence reaches a value greater than 10 times the standard deviation of the baseline, is […] to the amount of amplicon produced from the sample. Since the fluorescence is detected during the exponential phase of the amplification, none of the reaction components are limiting. In each experiment, a control is analyzed that lacks the RNA template to monitor for contamination, and another control is included where the RT step is omitted to eliminate amplification of possible contaminating DNA as the source of the signal. Reactions are optimized to give the greatest fluorescence signal and smallest Ct by titration of magnesium and primer concentrations, and the product is run on an agarose gel to verify the presence of a single band at the predicted molecular weight. […]\nQuantitation of the TaqMan results was performed as described by Heid et al., Genome Res. 6:986–994 (1996), with modifications. […]"}, "[4]": {"test_system": "male Sprague/Dawley (SD) rats", "conditions": "s.c. twice a day; previous study, Lai et al.; cited from earlier work"}, "[5]": {"test_system": "adult rat cardiac myocytes", "test": "Inhibition of PGF2α-induced spreading response of adult myocytes", "type": "cell-based", "method": "Myocytes were pre-incubated with saline vehicle or IFN-γ (500 U/ml) on day of isolation. A second addition of vehicle or IFN-γ was performed 24h after isolation, along with the addition of either vehicle or PGF2α (10^−7 M). After an additional 72 hr incubation, cells were fixed in glutaraldehyde, stained with eosin Y and viewed by fluorescence microscopy. A, B, C Cardiac myocytes after 4 days in culture: control, PGF2α, and PGF2α+IFN-γ, respectively. D, E, F Histographs showing maximum breadth of rod shaped cardiac myocytes versus percent frequency of breadth occurrence. The maximum breadth of rod-shaped cells was determined by fluorescence microscopy and imaging software. At least 200 rod shaped cells from a single experiment were examined per group.\nMyocytes were pre-incubated with saline vehicle or IFN-γ on day of isolation. A second amount of IFN-γ was added 24 hr after isolation, along with the addition of either vehicle or PGF2α (10^−7 M). After an additional 72 hr incubation, cells were fixed in glutaraldehyde, stained with eosin Y and viewed under fluorescence. Quantitation of myocyte morphology: A control, B PGF2α, C PGF2α+IFN-γ (25 U/ml), D PGF2α+IFN-γ (100 U/ml), E PGF2α+IFN-γ (500 U/ml). Histographs showing maximum breadth of rod shaped cardiac myocytes versus percent frequency of breadth occurrence. The maximum breadth of rod-shaped cells was determined by fluorescence microscopy and imaging software. At least 200 rod shaped cells from a single experiment were examined per group.\nIn this assay, ventricular myocytes are isolated from a single (male Sprague-Dawley) rat, essentially following a modification of the procedure described in detail by Piper et al., “Adult ventricular rat heart muscle cells.” In: Cell Culture Techniques in Heart and Vessel Research, H. M. Piper, ed., Berlin: Spinger-Verlag, 1990, pp. 36–60. This procedure permits the isolation of adult ventricular myocytes and the long-term culture of these cells in the rod-shaped phenotype. […] Piper et al., supra; Lai et al., Am J. Physiol. 1996; 271 (Heart Circ. Phvsiol. 40):H2197–H2208. The inhibition of myocyte spreading induced by PGF2α, or PGF2α analogs, (e.g. fluprostenol) and phenylephrine by various potential inhibitors of cardiac hypertrophy is then tested. A detailed protocol is described in the examples that follow.\nAdult myocyte cultures The procedure used for the isolation of ventricular myocytes from adult rats was a modification of a procedure described by Piper et al., supra, and is detailed in Lai et al., supra. For each myocyte preparation, one male Sprague-Dawley rat weighing about 250 g was anesthetized with pentobarbital sodium, and the heart was removed. Extraneous tissue was trimmed from the heart, and it was mounted onto a Langendorff system that was temperature controlled at 37° C. The heart was perfused with about 40 ml of Krebs buffer (110 mM NaCl, 2.6 mM KCl, 1.2 mM KH2PO4, 1.2 mM MgSO4.7H2O, 25 mM NaHCO3 and 11 mM glucose). A solution containing 30 mg of collagenase and 12.5 μl of 100 mM CaCl2 in 50 ml of Krebs buffer was then recirculated through the heart for 30 minutes. The heart was removed from the Langendorff apparatus, and the atria and connective tissues were removed. The ventricles were cut into 2 mm cubes with dissecting scissors, and further digested in a fresh collagenase solution (30 mg collagenase and 400 mg BSA dissolved in Krebs buffer with 12.5 μl of 100 mM CaCl2) for five minutes at 37° C. During the digestion, the tissue suspension was gently band shaken one time per minute. After the digestion, the supernatant was removed and saved, and the remaining tissue was further digested in fresh collagenase solution for an additional five minutes."}, "[6]": {"conditions": "s.c. twice a day for 14 days, fluprostenol 0.15 mg/kg, IFN-γ 0.08 mg/kg, mean ± SEM"}}}
{"molecule": "O=C(O)CCC/C=C\\C[C@@H]1[C@@H](/C=C/[C@@H](O)COc2cccc(C(F)(F)F)c2)[C@H](O)C[C@@H]1O", "note": "(racemic) [fluprostenol, reference compound]", "values": [{"measurement": "Ratio of heart, ventricular, and left ventricular weights to body weight (FIG. 4)", "setting": "[1]; 14 days, fluprostenol and IFN-γ alone vs vehicle, fluprostenol+IFN-γ vs fluprostenol group", "value": "significant increase"}, {"measurement": "BWO, basal levels of body weight", "setting": "[1]; before treatment, mean ± SEM", "value": "292.3 ± 2.2", "unit": "g"}, {"measurement": "BW, body weight post treatment", "setting": "[1]; [6]", "value": "381.1 ± 4.4", "unit": "g"}, {"measurement": "HW, heart weight", "setting": "[1]; [6]", "value": "1.000 ± .018 g"}, {"measurement": "KW, kidney weight", "setting": "[1]; [6]", "value": "1.397 ± .038 g"}, {"measurement": "KW/BW, kidney weight to body weight", "setting": "[1]; [6]", "value": "3.632 ± .076 g/kg"}, {"measurement": "LVW, left ventricular weight", "setting": "[1]; [6]", "value": ".740 ± .013 g"}, {"measurement": "SW, spleen weight", "setting": "[1]; [6]", "value": ".880 ± .048 g"}, {"measurement": "SW/BW, spleen weight to body weight", "setting": "[1]; [6]", "value": "2.309 ± .130 g/kg"}, {"measurement": "VW, ventricular weight", "setting": "[1]; [6]", "value": ".957 ± .017 g"}, {"measurement": "ΔBW, BW-BWO", "setting": "[1]; [6]", "value": "91.9 ± 4.0", "unit": "g"}, {"measurement": "Mean arterial pressure (MAP) compared to vehicle", "setting": "[2]", "value": "significant decline"}, {"measurement": "Abundance of mRNA for α-skeletal actin, collagen I, and natriuretic factor in the heart vs vehicle", "setting": "[3]", "value": "increase in the abundance of mRNA"}, {"measurement": "mRNA for sarcoplasmic reticulum calcium ATPase in the heart vs vehicle", "setting": "[3]", "value": "significantly reduced"}, {"measurement": "Lowest dose which produces a significant cardiac hypertrophy in rats", "setting": "[4]", "value": 0.15, "unit": "mg/kg"}]}
{"molecule": "IFN-α", "values": [{"measurement": "Ability of other cytokines to inhibit PGF2α induced myocyte spreading", "setting": "[5]", "value": "could not inhibit the spreading response"}]}
{"molecule": "IL-1β: other cytokine tested for inhibition of the spreading response", "values": [{"measurement": "Ability of other cytokines to inhibit PGF2α induced myocyte spreading", "setting": "[5]", "value": "could not inhibit the spreading response"}]}
{"molecule": "IL-6: other cytokine tested for inhibition of the spreading response", "values": [{"measurement": "Ability of other cytokines to inhibit PGF2α induced myocyte spreading", "setting": "[5]", "value": "could not inhibit the spreading response"}]}
{"molecule": "TNF-α", "values": [{"measurement": "Ability of other cytokines to inhibit PGF2α induced myocyte spreading", "setting": "[5]", "value": "could not inhibit the spreading response"}]}
{"molecule": "prostaglandin F2α [PGF2α]", "values": [{"measurement": "Spreading response of adult myocytes (maximum cell breadth) vs control cells", "setting": "[5]; 0.1 μM, P<0.001", "value": "induced a significant change in the maximum cell breadth"}]}
{"molecule": "B1", "values": [{"measurement": "Ability of other cytokines to inhibit PGF2α induced myocyte spreading", "setting": "[5]", "value": "could not inhibit the spreading response"}]}
